Assay results taken from US20250206751A1, “HETEROCYCLIC COMPOUND FOR INDUCING DEGRADATION OF G12D MUTANT KRAS PROTEIN” (Astellas Pharma Inc., priority 2022, published 2025).

Key:
[1] = tested on: phosphorylation of threonine 202 (Thr202) and tyrosine 204 (Tyr204) of ERK; experiment: ERK phosphorylation inhibitory effect by Cell ELISA in AsPC-1 (Test Example 2); format: cell-based, human; conditions: Homo sapiens, ASPC1, AsPC-1 cells, cultured overnight with compound; 1 μM trametinib taken as 0%
In short: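 AsPC-1 cells (G12D KRAS) treated overnight with compound (10 points, 10 μM to 0.3 nM final), then glyoxal-fixed and immunostained for phospho-ERK with a fluorescent secondary read at 800 nm. IC50 by Sigmoid-Emax regression, with DMSO as 100% and 1 μM trametinib as 0%.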

[2] = tested on: human G12D mutant KRAS-positive pancreatic cancer line AsPC-1; experiment: Non-anchorage-dependent cell growth inhibition, spheroid 3D cell culture (Test Example 3); format: cell-based; conditions: Homo sapiens, ASPC1, 144 h, AsPC-1 spheroid 3D culture, 6 days, CellTiter Glo 2.0
In short: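 AsPC-1 spheroids, 5×10^2 cells per well on low-adhesion round-bottom plates in RPMI 1640/10% FBS, dosed next day at 10 or 6 points spanning 10 μM to 0.3 nM final for 6 days at 37° C., 5% CO2. Viability by CellTiter Glo 2.0 luminescence; IC50 by Sigmoid-Emax regression, DMSO 100% and cell-free medium 0%.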

KRAS G12D protein = molecular target: T1, KRAS G12D protein (Homo sapiens, UniProt P01116, G12D); experiment: KRAS degradation activity by Cell ELISA in AsPC-1 (Test Example 1); format: cell-based; conditions: AsPC-1 cells, cultured overnight with compound, corrected with β-actin, read-out: DC50 (50% degradation concentration of the amounts of KRAS)
T1 construct: host or cells: AsPC-1
In short: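 AsPC-1 cells (KRAS G12D), 2.0×10^4/well, treated overnight with compound (10 points, 10 μM–0.3 nM final) in RPMI 1640/10% FBS. Fixed cells immunostained for G12D-specific Ras and β-actin, with near-IR fluorescence read. Ras/actin ratio scaled DMSO = 0% and actin-only = 100%, and DC50 fitted by Sigmoid-Emax regression.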

T1 sequence (P01116 1-188 isoform P01116-2 G12D): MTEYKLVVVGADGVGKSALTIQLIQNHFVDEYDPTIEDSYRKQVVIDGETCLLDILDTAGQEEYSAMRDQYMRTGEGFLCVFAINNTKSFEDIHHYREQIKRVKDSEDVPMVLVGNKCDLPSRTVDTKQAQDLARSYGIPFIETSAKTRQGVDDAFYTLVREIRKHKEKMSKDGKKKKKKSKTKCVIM

Row | IC50 [1] [µM] | IC50 [2] [µM] | DC50 (KRAS G12D protein) [µM] | Compound
1 | 0.057 | 0.039 | 0.037 | COCCCOc1nc(N(C)[C@H]2CCNC2)c2cc(C3CC3)c(-c3c(C)c(F)cc4[nH]ncc34)c(OCc3ccc(-c4cn([C@H](C(=O)N5C[C@H](O)C[C@H]5C(=O)N[C@@H](CO)c5ccc(-c6scnc6C)cc5)C(C)C)nn4)cc3)c2n1 (atropisomer, axis not shown) [Example 39]
2 | 0.007 | 0.006 | 0.047 | CO[C@@H](C)COc1nc(N(C)[C@H]2CCNC2)c2cc(C3CC3)c(-c3c(C)c(F)cc4[nH]ncc34)c(OCc3ccc(-c4cn([C@H](C(=O)N5C[C@H](O)C[C@H]5C(=O)N[C@@H](CO)c5ccc(-n6cncn6)cc5)C(C)C)nn4)cc3)c2n1 (atropisomer, axis not shown) [Example 40]
3 | 0.009 | 0.008 | 0.029 | Cc1c(F)cc2[nH]ncc2c1-c1c(C2CC2)cc2c(N(C)[C@H]3CCNC3)nc(OC[C@H]3CCCO3)nc2c1OCc1ccc(-c2cn([C@H](C(=O)N3C[C@H](O)C[C@H]3C(=O)N[C@@H](CO)c3ccc(-n4cncn4)cc3)C(C)C)nn2)cc1 (atropisomer, axis not shown) [Example 41]
4 | 0.007 | 0.006 | 0.041 | CO[C@H](COc1nc(N(C)[C@H]2CCNC2)c2cc(C3CC3)c(-c3c(C)c(F)cc4[nH]ncc34)c(OCc3ccc(-c4cn([C@H](C(=O)N5C[C@H](O)C[C@H]5C(=O)N[C@@H](CO)c5ccc(-c6scnc6C)cc5)C(C)C)nn4)cc3)c2n1)C(F)F (atropisomer, axis not shown) [Example 43]
5 | 0.016 | 0.015 | 0.027 | CO[C@@H](C)COc1nc(N(C)[C@H]2CCNC2)c2cc(C3CC3)c(-c3c(C)c(F)cc4[nH]ncc34)c(OCc3ccc(-c4cn([C@H](C(=O)N5C[C@H](O)C[C@H]5C(=O)N[C@@H](CO)c5ccc(-c6scnc6C)cc5)C(C)C)nn4)nc3)c2n1 (atropisomer, axis not shown) [Example 45]
6 | 0.006 | 0.005 | 0.025 | CO[C@H](CF)COc1nc(N(C)[C@H]2CCNC2)c2cc(C3CC3)c(-c3c(C)c(F)cc4[nH]ncc34)c(OCc3ccc(-c4cn([C@H](C(=O)N5C[C@H](O)C[C@H]5C(=O)N[C@@H](CO)c5ccc(-c6scnc6C)cc5)C(C)C)nn4)cc3)c2n1 (atropisomer, axis not shown) [Example 46]
7 | 0.022 | 0.015 | 0.026 | CO[C@@H](CF)COc1nc(N(C)[C@H]2CCNC2)c2cc(C3CC3)c(-c3c(C)c(F)cc4[nH]ncc34)c(OCc3ccc(-c4cn([C@H](C(=O)N5C[C@H](O)C[C@H]5C(=O)N[C@@H](CO)c5ccc(-c6scnc6C)cc5)C(C)C)nn4)cc3)c2n1 (atropisomer, axis not shown) [Example 47]
8 | 0.015 | 0.016 | 0.038 | Cc1ncsc1-c1ccc([C@H](CO)NC(=O)[C@@H]2C[C@@H](O)CN2C(=O)[C@H](C(C)C)n2cc(-c3ccc(COc4c(-c5c(C)c(F)cc6[nH]ncc56)c(C5CC5)cc5c(N(C)[C@H]6CCNC6)nc(OC[C@@H](C)F)nc45)cc3)nn2)cc1 (atropisomer, axis not shown) [Example 48]
9 | 0.032 | 0.01 | 0.025 | COCC1(COc2nc(N(C)[C@H]3CCNC3)c3cc(C4CC4)c(-c4c(C)c(F)cc5[nH]ncc45)c(OCc4ccc(-c5cn([C@H](C(=O)N6C[C@H](O)C[C@H]6C(=O)N[C@@H](CO)c6ccc(-c7scnc7C)cc6)C(C)C)nn5)cc4)c3n2)CC1 (atropisomer, axis not shown) [Example 49]
10 | 0.059 | 0.044 | 0.014 | CO[C@@H](C)COc1nc(N[C@@H]2CCNC2)c2cc(C3CC3)c(-c3c(C)c(F)cc4[nH]ncc34)c(OCc3ccc(-c4cn([C@H](C(=O)N5C[C@H](O)C[C@H]5C(=O)N[C@@H](CO)c5ccc(-c6scnc6C)cc5)C(C)C)nn4)cc3)c2n1 (atropisomer, axis not shown) [Example 51]
11 | 0.004 | 0.004 | 0.011 | CO[C@@H](C)COc1nc(O[C@@H]2CCNC2)c2cc(C3CC3)c(-c3c(C)c(F)cc4[nH]ncc34)c(OCc3ccc(-c4cn([C@H](C(=O)N5C[C@H](O)C[C@H]5C(=O)N[C@@H](CO)c5ccc(-c6scnc6C)cc5)C(C)C)nn4)cc3)c2n1 (atropisomer, axis not shown) [Example 52]
12 | 0.005 | 0.007 | 0.034 | CO[C@@H](C)COc1nc(N2CCNCC2)c2cc(C3CC3)c(-c3c(C)c(F)cc4[nH]ncc34)c(OCc3ccc(-c4cn([C@H](C(=O)N5C[C@H](O)C[C@H]5C(=O)N[C@@H](CO)c5ccc(-c6scnc6C)cc5)C(C)C)nn4)cc3)c2n1 (atropisomer, axis not shown) [Example 54]
13 | 0.009 | 0.092 | 0.02 | Cc1ncsc1-c1ccc([C@H](CO)NC(=O)[C@@H]2C[C@@H](O)CN2C(=O)[C@H](C(C)C)n2cc(-c3ccc(COc4c(-c5c(C)c(F)cc6[nH]ncc56)c(C5CC5)cc5c(OC6CNC6)nc(OC6CCOCC6)nc45)cc3)nn2)cc1 (atropisomer, axis not shown; (M)) [Example 2, (4R)-1-[(2S)-2-(4-{4-[({(7M)-4-[(azetidin-3-yl)oxy]-6-cyclopropyl-7-(6-fluoro-5-methyl-1H-indazol-4-yl)-2-[(oxan-4-yl)oxy]quinazolin-8-yl}oxy)methyl]phenyl}-1H-1,2,3-triazol-1-yl)-3-methylbutanoyl]-4-hydroxy-N-{(1R)-2-hydroxy-1-[4-(4-methyl-1,3-thiazol-5-yl)phenyl]ethyl}-L-prolinamide]
14 | 0.008 | 0.006 | 0.018 | Cc1ncsc1-c1ccc([C@H](CO)NC(=O)[C@@H]2C[C@@H](O)CN2C(=O)[C@H](C(C)C)n2cc(-c3ccc(COc4c(-c5c(C)c(F)cc6[nH]ncc56)c(C5CC5)cc5c(N(C)[C@H]6CCNC6)nc(OC[C@@H]6CCCO6)nc45)cc3)nn2)cc1 (atropisomer, axis not shown; (M)) [Example 10, (4R)-1-[(2S)-2-{4-[4-({[(7M) 6-cyclopropyl-7-(6-fluoro-5-methyl-1H-indazol-4-yl)-4-{methyl[(3S)-pyrrolidin-3-yl]amino}-2-{[(2S)-oxolan-2-yl]methoxy}quinazolin-8-yl}oxy}methyl)phenyl]-1H-1,2,3-triazol-1-yl}-3-methylbutanoyl]-4-hydroxy-N-{(1R)-2-hydroxy-1-[4-(4-methyl-1,3-thiazol-5-yl)phenyl]ethyl}-L-prolinamide]
15 | 0.031 | 0.017 | 0.043 | CO[C@@H](C)COc1nc(N(C)[C@H]2CCNC2)c2cc(C3CC3)c(-c3c(C)c(F)cc4[nH]ncc34)c(OCc3ccc(-c4cn([C@H](C(=O)N5C[C@H](O)C[C@H]5C(=O)N[C@@H](CO)c5ccc(-c6scnc6C)cc5)C(C)C)nn4)c(F)c3)c2n1 (atropisomer, axis not shown; (M)) [Example 44]
16 | 0.008 | 0.007 | 0.035 | Cc1ncsc1-c1ccc([C@H](CO)NC(=O)[C@@H]2C[C@@H](O)CN2C(=O)[C@H](C(C)C)n2cc(-c3ccc(COc4c(-c5c(C)c(F)cc6[nH]ncc56)c(C5CC5)cc5c(N[C@H]6CCNC6)cc(OC6CCOCC6)nc45)cc3)nn2)cc1 [Example 4]
